Data on two compounds can be found in PMC4876051 (Clinical pharmacokinetics, 2016).

Read-outs that look alike come from different tables or passages of the source. Where only a bound is given, the exact number is not on record here.

In data set [1] the target is T1, MATE2 (Homo sapiens, UniProt Q86VL8). Put plainly: cell-based.
Data set [2] has as its target T2, OCT2 (Homo sapiens, UniProt O15244). The note with it: overexpressing cell line; Supplemental Fig. 4.
In data set [3] the target is T3, MATE1 (Homo sapiens, UniProt Q96FL8). Put plainly: cell-based.
For data set [4] the following is noted: cited from earlier work.
Data set [5] concerns the target T2, OCT2. Put plainly: cell-based.
Another data set deals with creatinine plasma levels. As to conditions: with famotidine.
Data set [6] deals with T1, MATE2. As to conditions: overexpressing cell line; Supplemental Fig. 4.
Data set [7] has as its target T3, MATE1. The note with it: overexpressing cell line; Supplemental Fig. 4.
For a further data set, the system named is plasma glucose. Put plainly: Oral glucose tolerance test. On the set-up: AUCglu,0.5, GMR (90%CI), metformin vs baseline / AUCglu,3, GMR (90%CI), metformin vs baseline: unit not given beside the values.
In data set [8] the target is T4, OCT1 (Homo sapiens, UniProt O15245). As to conditions: overexpressing cell line; Supplemental Fig. 4.
A short description of data set [9]: clinical. As to conditions: human, plasma and urine, oral, 200 mg.
The target in data set [10] is T4, OCT1. In words: cell-based.
The conditions of data set [11]: cited from earlier work. This is another data set of the same source.
The conditions of data set [12]: for Maximal concentration of unbound famotidine in plasma ([I], Cmax,u): healthy volunteers n=12, oral famotidine 160 to 200 mg doses.
Data set [13] deals with creatinine (an endogenous substrate of MATE1). As to conditions: 12h after famotidine (200 mg) alone vs pre-famotidine.
A short description of data set [14]: Tolerability in the clinical study. As to conditions: twelve healthy volunteers; famotidine Cmax,u about 1.0 μM.
Data set [15] has as its target T3, MATE1. The note with it: MATE1 vs OCT2.
The target in data set [16] is plasma membrane monoamine transporter (PMAT, SLC29A4) (Homo sapiens, UniProt Q7RTT9). As to conditions: Supplemental Fig. 7.
A short description of data set [17]: clinical. As to conditions: human.
For data set [18] the following is noted: cited from earlier work. The source holds these as a separate data set.
Setting [19] is: population PK model, twelve healthy volunteers.
[20] abbreviates: glucose AUC 0 to 0.5h after 75 g glucose, n=12.
[21] abbreviates: glucose AUC 0 to 3h after 75 g glucose, n=12.
Where [22] appears, read: metformin vs baseline (no drug).

T3 sequence (Q96FL8 whole entry): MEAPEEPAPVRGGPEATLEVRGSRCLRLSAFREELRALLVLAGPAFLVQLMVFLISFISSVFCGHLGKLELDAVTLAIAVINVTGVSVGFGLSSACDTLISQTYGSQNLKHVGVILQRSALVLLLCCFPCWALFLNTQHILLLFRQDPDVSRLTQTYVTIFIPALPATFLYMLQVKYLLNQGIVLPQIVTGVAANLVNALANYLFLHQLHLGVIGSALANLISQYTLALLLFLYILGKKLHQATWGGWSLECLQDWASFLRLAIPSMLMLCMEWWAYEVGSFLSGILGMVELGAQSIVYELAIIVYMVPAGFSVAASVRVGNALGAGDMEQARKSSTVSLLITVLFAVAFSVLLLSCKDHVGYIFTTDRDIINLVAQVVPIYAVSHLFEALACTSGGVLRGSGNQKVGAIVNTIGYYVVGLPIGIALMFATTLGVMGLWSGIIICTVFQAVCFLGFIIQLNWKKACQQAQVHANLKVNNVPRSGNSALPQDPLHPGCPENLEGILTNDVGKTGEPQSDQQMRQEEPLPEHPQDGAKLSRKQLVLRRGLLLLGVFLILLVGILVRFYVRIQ
T1 sequence (Q86VL8 whole entry): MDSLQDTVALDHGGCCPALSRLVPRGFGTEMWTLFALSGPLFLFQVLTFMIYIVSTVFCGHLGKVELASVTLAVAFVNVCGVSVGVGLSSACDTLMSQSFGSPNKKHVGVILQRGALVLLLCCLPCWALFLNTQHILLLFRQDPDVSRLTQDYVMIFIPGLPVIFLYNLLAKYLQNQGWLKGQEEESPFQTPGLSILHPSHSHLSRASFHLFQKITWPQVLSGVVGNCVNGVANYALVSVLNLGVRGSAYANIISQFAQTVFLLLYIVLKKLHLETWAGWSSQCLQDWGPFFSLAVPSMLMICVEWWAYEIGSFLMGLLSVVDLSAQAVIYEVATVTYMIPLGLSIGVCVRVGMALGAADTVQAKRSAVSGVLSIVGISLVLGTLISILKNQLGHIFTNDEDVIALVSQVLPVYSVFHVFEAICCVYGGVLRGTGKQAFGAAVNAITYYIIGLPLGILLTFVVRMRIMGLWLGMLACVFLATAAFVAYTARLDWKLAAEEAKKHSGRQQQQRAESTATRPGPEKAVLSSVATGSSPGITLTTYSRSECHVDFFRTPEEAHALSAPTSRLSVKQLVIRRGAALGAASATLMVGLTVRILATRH
T4 sequence (O15245 whole entry): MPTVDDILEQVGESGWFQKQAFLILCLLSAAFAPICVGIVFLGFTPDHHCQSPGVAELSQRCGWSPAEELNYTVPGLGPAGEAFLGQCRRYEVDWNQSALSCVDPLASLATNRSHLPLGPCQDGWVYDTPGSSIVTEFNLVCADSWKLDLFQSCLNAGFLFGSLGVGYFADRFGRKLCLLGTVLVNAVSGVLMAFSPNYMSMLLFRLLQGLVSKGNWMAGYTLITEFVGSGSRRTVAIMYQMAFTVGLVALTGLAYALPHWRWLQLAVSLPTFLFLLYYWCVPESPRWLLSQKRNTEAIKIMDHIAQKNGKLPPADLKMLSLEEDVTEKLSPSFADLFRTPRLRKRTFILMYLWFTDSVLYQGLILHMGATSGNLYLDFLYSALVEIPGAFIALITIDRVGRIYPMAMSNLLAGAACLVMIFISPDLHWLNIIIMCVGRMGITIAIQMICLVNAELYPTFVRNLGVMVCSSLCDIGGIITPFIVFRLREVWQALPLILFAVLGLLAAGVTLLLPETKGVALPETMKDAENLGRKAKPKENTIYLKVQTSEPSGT
T2 sequence (O15244 whole entry): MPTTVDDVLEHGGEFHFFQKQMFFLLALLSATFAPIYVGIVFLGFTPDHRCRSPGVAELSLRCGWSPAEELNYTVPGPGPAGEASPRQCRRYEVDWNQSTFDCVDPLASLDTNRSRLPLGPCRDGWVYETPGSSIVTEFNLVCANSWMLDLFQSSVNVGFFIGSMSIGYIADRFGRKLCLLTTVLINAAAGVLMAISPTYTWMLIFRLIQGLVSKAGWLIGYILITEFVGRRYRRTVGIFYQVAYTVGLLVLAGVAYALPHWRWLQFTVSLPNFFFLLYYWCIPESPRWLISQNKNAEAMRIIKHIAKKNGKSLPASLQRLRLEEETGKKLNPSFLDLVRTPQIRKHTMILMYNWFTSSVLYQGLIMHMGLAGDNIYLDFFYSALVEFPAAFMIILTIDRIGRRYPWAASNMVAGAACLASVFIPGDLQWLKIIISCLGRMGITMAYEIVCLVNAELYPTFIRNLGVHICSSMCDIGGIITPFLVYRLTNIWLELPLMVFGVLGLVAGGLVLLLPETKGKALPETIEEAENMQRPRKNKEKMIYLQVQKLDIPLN
plasma membrane monoamine transporter (PMAT, SLC29A4), sequence (Q7RTT9 whole entry): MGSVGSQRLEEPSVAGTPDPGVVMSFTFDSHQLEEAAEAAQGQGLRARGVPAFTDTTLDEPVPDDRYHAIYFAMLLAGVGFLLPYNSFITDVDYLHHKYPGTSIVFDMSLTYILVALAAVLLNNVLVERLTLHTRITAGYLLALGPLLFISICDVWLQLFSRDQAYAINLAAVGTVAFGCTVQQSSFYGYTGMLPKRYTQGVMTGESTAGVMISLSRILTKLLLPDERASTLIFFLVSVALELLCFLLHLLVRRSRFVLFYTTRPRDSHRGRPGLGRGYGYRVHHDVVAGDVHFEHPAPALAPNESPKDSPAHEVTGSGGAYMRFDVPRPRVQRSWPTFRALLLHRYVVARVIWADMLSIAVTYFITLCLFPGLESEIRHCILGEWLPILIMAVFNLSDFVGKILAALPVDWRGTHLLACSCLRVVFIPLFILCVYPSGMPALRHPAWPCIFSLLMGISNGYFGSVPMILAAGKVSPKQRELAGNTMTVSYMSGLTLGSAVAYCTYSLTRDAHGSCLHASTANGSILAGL

Regarding `NC(N)=Nc1nc(CSCCC(N)=NS(N)(=O)=O)cs1` [Famotidine, famotidine], inhibition on MATE2 [1] was half-maximal at 2.5 µM (IC50). The “Substrate of OCT2” value on OCT2 [2] is reported as “unequivocal substrate”. For the same compound, the IC50 (commonly the concentration needed to halve the response being measured) at MATE1 [3] was 0.25 µM. For the same compound, the “Bound to plasma proteins” value in data set [4] was “approximately 20%”. Also, the IC50 against OCT2 [5] stood at 66 µM. In the data set on creatinine plasma levels, the “BSV-Baseline, creatinine model (R.S.E.)” value is 18 (19%) and the “BSV-Phase Shift, creatinine model (R.S.E.)” value was 2.7 (89%). Further, in the data set with creatinine plasma levels (diurnal rhythm model), the “Creatinine plasma Amplitude 1, typical value (R.S.E.)” value is 1.15 (49%) mg/L and the “Creatinine plasma Phase Shift 1, typical value (R.S.E.)” value is 2.37 (2.6%) mg/L. The “Creatinine plasma Baseline, typical value (R.S.E.)” value in the data set on creatinine plasma levels (twelve healthy volunteers) is 8.07 (5.5%) mg/L. For the same compound, at MATE2 [6], the “Substrate of MATE2” value is recorded as “unequivocal substrate”. In addition, on MATE1 [7], the “Substrate of MATE1” value is recorded as “unequivocal substrate”. Besides, the “Effect of famotidine alone on glucose AUC” value with plasma glucose (OGTT, data not shown) was “no significant effect”. On OCT1 [8], the “Substrate of OCT1” value is “unequivocal substrate”. Moreover, the CL renal in the data set “clinical [9]” was found to be 290 ± 32 mL/min. This compound came in with an IC50 against OCT1 [10] of 19 µM. Also, in [11], the “Eliminated by metabolic route” value is recorded as 30–35% and the “Eliminated by renal route” value is given as 65–70%. Besides, in [12], the “Maximal concentration of unbound famotidine in plasma ([I], Cmax,u)” value was 1000 nM. For the same compound, the “Maximal concentration of unbound famotidine in plasma ([I], Cmax,u)” value in [12] (listed as famotidine) was 1000 ± 64 nM. Moreover, in [12] (population PK model, (R.S.E)), the “BSV-CL (between subject variability)” value is on record as 6.4% (25%), the “BSV-F (between subject variability)” value is 26% (53%) and the “BSV-Lagtime (between subject variability)” value is recorded as 77% (99%). Further, in data set [12] (setting [19]), the “CL/F, population estimate (R.S.E)” value was 116 (7.2%) L/h; the “Lag time, population estimate (R.S.E)” value was 0.27 (32%) h; the “V/F, population estimate (R.S.E)” value is listed as 715 (6.0%) L; the “ka, population estimate (R.S.E)” value is 1.14 (11%) h^−1. Also, the “Creatinine concentrations in plasma” value in data set [13] is on record as “significantly higher”. For the same compound, in data set [14], the “Tolerability during co-administration with metformin” value is “well tolerated”. Moreover, the “Selectivity of inhibition of metformin transport for MATE1 over OCT2” value on MATE1 [15] is reported as “over 200 fold”. For the same compound, the “Inhibition of metformin transport by PMAT” value in [16] was “potent inhibitor”.
On to `CN(C)C(=N)N=C(N)N` [Metformin, metformin], for which the CL renal in “clinical [17]” (plasma and urine, oral) worked out at 767 ± 70 mL/min. Further, the AUC(0-inf) (commonly the area under the concentration-time curve extrapolated to infinity) in the data set “clinical [17]” (plasma, oral) came to 14600 ng·h/mL. The Tmax (commonly the time from dosing to the highest level) in the data set “clinical [17]” (plasma, po, 1850 mg) is 2 ± 0.24 h. Besides, in the data set on plasma glucose (setting [20]), the “AUCglu,0.5, mean ± SEM” value came out at 55 ± 1.5 mg·h/dL and the “AUCglu,0.5, median” value came out at 55 mg·h/dL. In addition, in the data set with plasma glucose (setting [21]), the “AUCglu,3, mean ± SEM” value worked out at 356 ± 14 mg·h/dL and the “AUCglu,3, median” value was found to be 343 mg·h/dL. In the data set with plasma glucose (setting [22]), the “AUCglu,0.5, GMR (90%CI), metformin vs baseline” value is 0.94 (0.90–0.98) and the “AUCglu,3, GMR (90%CI), metformin vs baseline” value is listed as 0.99 (0.94–1.04). The “AUCglu,0.5, GMR (90%CI), metformin vs baseline” value in the data set with plasma glucose (metformin vs baseline (no drug), listed as metformin) was 0.94 [0.90–0.98]. Also, the “Ionized in blood and in urine at physiologic pH” value in [18] was > 99%.
